Assay results published in publication PMC8006714 (Chemical Communications (Cambridge, England), 2021).
“And” between values parts separate entries of the source, which are not always exact repeats. Equal values may be shown once. “Also recorded” adds a separate entry of the source. Read-outs that look alike come from different tables or passages of the source.

Legend:
SARS-CoV-2 M^pro [1] = target: T1, SARS-CoV-2 M^pro (Severe acute respiratory syndrome coronavirus 2, UniProt P0DTD1); test: biochemical; format: biochemical
SARS-CoV-2 M^pro [2] = target: T1, SARS-CoV-2 M^pro; format: binding; conditions: for covalent modification of M^pro preincubated with N3 (active site selectivity): 1 μM M^pro preincubated with 3 μM N3, 20 μM inhibitor; for covalent modification of M^pro (protein observed SPE-MS): 20 μM inhibitor, 20 mM HEPES pH 7.5, 50 mM NaCl
SARS-CoV-2 M^pro [3] = target: T1, SARS-CoV-2 M^pro; test: biochemical; format: biochemical; conditions: for M^pro inhibition at single concentrations (in words): 20, 50 and 100 µM β-lactam, 30 min or 60 min preincubation (Fig. S17); for inhibition at a fixed 20 μM inhibitor concentration: LOPAC and API library screens
M^pro = system: M^pro; design: method as in doi:10.1101/2020.05.28.120642; conditions: read-out: reported IC50; cited from earlier work
[4] = 30 min preincubation, SPE-MS dose response
[5] = 60 min preincubation, SPE-MS dose response

Compound | IC50 (SARS-CoV-2 M^pro [1]; IC50 (SPE-MS)) | covalent modification of M^pro preincubated with N3 (active site selectivity) (SARS-CoV-2 M^pro [2]) | covalent modification of M^pro (protein observed SPE-MS) (SARS-CoV-2 M^pro [2]; 1 μM M^pro) | % Mpro inhibition at 20 µM (SARS-CoV-2 M^pro [3]) | further results
COC1(NC(=O)Cc2ccccc2)C(=O)N2C1[S+]([O-])C(C)(C)C2C(=O)OCc1ccc([N+](=O)[O-])cc1 (stereo not drawn) [Compound 2, C6-methoxy penicillin G sulfoxide C3 p-nitrobenzyl ester] | ~3500 nM and 3500 nM and 2100 nM | Minor further modification | does not efficiently modify M^pro through covalent reaction |  | Hill slope (SARS-CoV-2 M^pro [1]; [4]): 2.2 ± 0.1; Hill slope (SARS-CoV-2 M^pro [1]; [5]): 2.1 ± 0.1; extent of covalent modification of M^pro (SARS-CoV-2 M^pro [2]; 1 μM M^pro, 20 μM β-lactam): < 10%; M^pro inhibition at single concentrations (in words) (SARS-CoV-2 M^pro [3]): moderate inhibition
Cc1ccc(S(=O)(=O)N[C@@H](Cc2ccccc2)C(=O)CCl)cc1 [TPCK, N-p-Toluenesulfonyl-L-phenylalanine chloromethyl ketone] |  | does not covalently modify M^pro in the presence of N3; also recorded: substantial covalent modification was no longer observed; also recorded: does not react with TPCK | modifies M^pro in a covalent manner; also recorded: covalently reacts with Mpro | 94.1% | IC50 (SARS-CoV-2 M^pro [1]; pH 7.5, read-out: IC50 (SPE-MS)): ~800 nM and 830 nM
Cc1cc(C(=O)N[C@@H](C)C(=O)N[C@H](C(=O)N[C@@H](CC(C)C)C(=O)N[C@H](/C=C/C(=O)OCc2ccccc2)C[C@@H]2CCNC2=O)C(C)C)no1 [Compound N3] | 40 nM and 30 nM | one major binding event | modifies M^pro in a covalent manner; also recorded: more than one reaction with the Mpro monomer; also recorded: predominantly (but not exclusively) a single N3 adduct was observed |  | 
CC1(C)[C@H](C(=O)OCc2ccccc2)N2C(=O)[C@@H](NC(=O)COc3ccccc3)[C@H]2S1(=O)=O [Compound 1, penicillin V sulfone C3 benzyl ester] | ~1500 nM and 1500 nM and 900 nM | no reaction | A single molecule 1 covalently modifies M^pro; also recorded: Covalent modification was observed |  | Hill slope (SARS-CoV-2 M^pro [1]; [4]): 1.4 ± 0.4; Hill slope (SARS-CoV-2 M^pro [1]; [5]): 1.6 ± 0.2; M^pro inhibition at single concentrations (in words) (SARS-CoV-2 M^pro [3]): moderate inhibition
CC(=O)OCC1=C(C(=O)[O-])N2C(=O)[C@@H](NC(=O)CCC[C@@H](N)C(=O)[O-])[C@H]2SC1.[Zn+2] [Cephalosporin C zinc salt] |  |  |  | 92.3% | Hill slope (SARS-CoV-2 M^pro [1]; 22 minutes preincubation, SPE-MS): 1.83; M^pro inhibition (in words) (SARS-CoV-2 M^pro [3]): inhibited
[Cl-].[Cl-].[Zn+2] [ZnCl2] |  |  |  |  | Hill slope (SARS-CoV-2 M^pro [1]): 2.23 and 2.07; IC50 (SARS-CoV-2 M^pro [1]; read-out: IC50): 340 nM and 370 nM
Oc1ccc2ccccc2c1SSc1c(O)ccc2ccccc12 [IPA-3, 1,1’-Disulfanediyldinaphthalen-2-ol] | ~100 nM and 70 nM | multiple adducts observed with unmodified M^pro were diminished; also recorded: does not (at least substantially) covalently modify Mpro | reacts with Mpro at multiple positions |  | inhibition at a fixed 20 μM inhibitor concentration (SARS-CoV-2 M^pro [3]): ≥ 80%; inhibition at 20 µM (SARS-CoV-2 M^pro [3]; read-out: % Mpro inhibition at 20 µM): 99.1%
CC(=O)OC[C@H]1O[C@@H]([S-])[C@H](OC(C)=O)[C@@H](OC(C)=O)[C@@H]1OC(C)=O.CCP(CC)CC.[Au+] [Auranofin] |  |  |  | 100.0% | IC50 (M^pro): ~500 nM; inhibition at a fixed 20 μM inhibitor concentration (SARS-CoV-2 M^pro [3]): ≥ 80%
O=c1c2ccccc2[se]n1-c1ccccc1 [Ebselen] |  |  | covalently reacts multiple times with Mpro |  | covalent modification of M^pro (protein observed SPE-MS) (SARS-CoV-2 M^pro [2]; 1 μM M^pro, listed as ebselen): modifies M^pro in a covalent manner; also recorded: time dependent modification of multiple residues; inhibition at 20 µM (SARS-CoV-2 M^pro [3]; read-out: % Mpro inhibition at 20 µM, library of FDA-approved small molecules, 20 µM compound, […] Mpro, 2.0 µM TSAVLQ/SGFRK-NH2): 99.1%
